# Results reported in patent US6294568A, “5-arylpyrrole derivatives” (priority 1997, dated 2001).
# pIC50: −log10 of the molar value.
# Legend:
# Sarcoma 180 solid tumor = test: Antitumor Effect with respect to Sarcoma 180 Solid Tumor Mouse; type: in vivo, ICR mice; details: 10 mg/kg in abdominal cavity, 10 days; day 11
# Procedure: The antitumor effect test was conducted according to the method of the U. S. National Cancer Institute (NCI) (Cancer Chemotherapy Reports part 3, Vol. 3, 1 (1978)). Cell suspension of Sarcoma 180 cells (mouse sarcoma virus) which was employed as the tumor cell strain for transplant was prepared by diluting the cells in the Hank's solution at 2×10^7 cells/ml concentration ([…]), and ICR mice (10 mice per group) aged 5 weeks were injected subcutaneously with 0.2 ml of the cell suspension at the region of the back. Setting the day of the tumor transplantation as day 0. the mice were administered in the abdominal cavity with the compounds of the invention (Preparation Examples 1 and 37), 5-fluorouracyl, and the solution as the control for 10 days consecutively from day 1. On day 11, the mice were sacrificed, and portions of the solid tumor were removed so that weights thereof were measured. The dosage of each of the test samples was 10 mg/kg.
# Human COX-2 [1] = target: T1, Human COX-2 (Homo sapiens, UniProt P35354); test: Human COX-2 Inhibitory Activity Test (LPS-induced PGE2 in blood); type: cell-based
# T1 construct: endogenous in cells; host or cells: heparinised whole blood of a healthy human donor pretreated with aspirin, stimulated with LPS (own knowledge: COX-2 is induced in monocytes)
# T1 sequence (P35354 18-604): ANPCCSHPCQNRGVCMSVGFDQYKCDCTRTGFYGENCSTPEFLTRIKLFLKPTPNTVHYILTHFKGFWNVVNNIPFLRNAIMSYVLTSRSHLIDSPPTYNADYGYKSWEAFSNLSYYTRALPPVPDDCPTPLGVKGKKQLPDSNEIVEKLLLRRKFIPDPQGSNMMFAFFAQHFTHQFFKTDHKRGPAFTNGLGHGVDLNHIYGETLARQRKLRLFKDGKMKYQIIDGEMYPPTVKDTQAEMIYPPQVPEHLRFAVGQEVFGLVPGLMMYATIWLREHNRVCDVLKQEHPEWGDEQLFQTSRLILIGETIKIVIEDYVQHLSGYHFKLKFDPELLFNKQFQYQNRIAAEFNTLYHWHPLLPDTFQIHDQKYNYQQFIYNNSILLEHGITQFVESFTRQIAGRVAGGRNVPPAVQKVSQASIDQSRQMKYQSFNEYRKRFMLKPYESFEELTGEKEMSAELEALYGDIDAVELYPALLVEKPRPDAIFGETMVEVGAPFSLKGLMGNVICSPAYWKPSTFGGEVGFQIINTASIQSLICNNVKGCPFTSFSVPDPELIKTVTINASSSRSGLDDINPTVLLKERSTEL
# Procedure: (§1) COX-1 and COX-2 activities were measured according to the method of Patrignani et al. (J. Pharm. Exp. Ther. Vol. 271, 1705 (1994)).
# (2) COX-2 activity was measured in the following procedure. To blood collected from a healthy normal who had taken 330 mg of aspirin 48 hours before the blood collection in order to inhibit the COX-1 activity, 10 unit/ml of sodium heparin was added, and then pipetted into glass test tubes by 1 ml. 10 μg/ml of Lipopolysaccharide (LPS) was added thereto and the plasma obtained by the specified operation was stored at -40° C. until the measurement for the amount of prostaglandin E2 (PGE2). Test samples containing the test samples were treated in the same manner of operation as described above.
# (4) The measurement for the PGE2 content was conducted in the following procedure. In a part of 96 well plate coated with goat anti-mouse antibody, 2 wells were alloted respectively to a blank well, Non-specific Binding (NSB) well, Maximum Binding (B0) well, standard wells at seven concentrations of PGE2 (1000 pg/ml) in doubling dilution ranging from 1000-15.6 pg/ml. The rest of the wells were used for the sample measurement. EIA buffer was added to the NSB wells (100 μl) and to the B0 wells (50 μl), respectively. 50 μl of each of the standard dilution was added in an order from thinner to thicker concentrations. Each of the samples was added to the rest of the wells in an amount of 50 μl. Then, 50 μl of PGE2 tracer was added to each of the wells except for blank wells. Further, 50 μl PGE2 monoclonal antibody was added to each of the wells except for the NSB wells and blank wells, then the well plate was covered with a plastic film and the reaction continued at room temperature for 18 hours. When the reaction was terminated, the wells were washed 5 times with a wash buffer. 200 μl of Elman's reagent was added to each of the wells, and then the well plate was covered with a plastic film and developed for 60 minutes in a dark place. The absorbance at 405 nm was measured by an Immuno Reader (NJ-2000, manufactured by Nippon Intermed Co., Ltd.). From the measurement result, %B/B0 was calculated and, applying it to the approximation formula of Hill Plot, the concentration of the samples was determined to be 40 times concentration. The dilution was conducted with an EIA buffer throughout the Test Example 3.
# carrageenan footedema = test: Carrageenan Footedema Suppression Test; type: in vivo, SD rats; details: oral; paw volume three hours after carrageenan administration
# Procedure: The carrageenin footedema suppression test was conducted according to the method of Winter et al. (J. Pharm. Exp. Ther., Vol.141, 369 (1963)). The test samples suspended in Tween 80 were administered orally to SD rats (6 rats per 1 group) in an amount of 1 ml per 100 g of the body weight, while only the solvent was administered in the same manner as above as a control. One hour after the administration, 1% carrageenan physiological saline was injected subcutaneously to the rats in the plantar area of the right hind paw. Three hours after the carrageenan administration, the paw volumes were measured and the edematization rate (%) was calculated with Formula 1 and then edematization suppression rate (%) was calculated with Formula 2.
# Edematization rate (%)=((paw volume after carrageenan injection- paw volume before carrageenan injection)/(paw volume before carrageenan injection)×100 Formula: 1
# Edematization suppression rate (%)=((edematization rate of control-
# edematization rate of test samples)/edematization rate of […]
# CaCo-2 cells = test: Cytostatic Action Test on Various Cells (XTT method); type: cell-based
# Procedure: The cytostatic measurement of the various cancer cells were conducted according to the method of the U.S. National Cancer Institute (NCI). Adhesive cells such as CaCo-2 and HepG2 were adjusted in each of the specified culture mediums at 0.5×10^5 cells/ml concentration and pipetted into a 96 well-plate (Costar3695) in an amount of 100 μl/well. The cells were cultured under the conditions of at 37° C. in 5% CO2 atmosphere for 24 hours to allow the cell adhesion, and then the numbers of each of the cells were determined by the XTT method to be recorded as the cell number of day 0 (C0days). After that, only the medium solutions were exchanged in the control groups, and culture mediums each containing the test samples adjusted to each of the specified concentrations were exchanged In the test sample dispensing groups, then the cells were cultured under the conditions of at 37° C. in 5% CO2 atmosphere for 72 hours. The numbers of each of the cells were determined by the XTT method to be recorded as the cell number of day 3 (C3days). Further, only the medium solutions were pipetted into the control groups and the test sample administration groups were adjusted to 5×10^5 cells/ml concentrations in each of the specified culture mediums containing the test samples adjusted to each of the specified concentrations, then pipetted into a 96 well-plate (Costar3695) in an amount of 100 μl/well. The cells were cultured under the condition of at 37° C. in 5% CO2 atmosphere for 72 hours, and the number of each of the cells (T3days) were determined in the same manner.
# Cell proliferation rate (%) with respect to control groups=[(T3days
# -C0days)/(C3days -C0days)]×100 Formula: 5
# Human COX-1 = target: T2, Human COX-1 (Homo sapiens, UniProt P23219); test: Human COX-1 Inhibitory Activity Test (TXB2 in blood); type: cell-based; details: IC50 from Hill Plot
# T2 construct: endogenous in cells; host or cells: whole blood of a healthy human donor (own knowledge: TXB2 of clotting blood comes from platelet COX-1)
# T2 sequence (P23219 24-599): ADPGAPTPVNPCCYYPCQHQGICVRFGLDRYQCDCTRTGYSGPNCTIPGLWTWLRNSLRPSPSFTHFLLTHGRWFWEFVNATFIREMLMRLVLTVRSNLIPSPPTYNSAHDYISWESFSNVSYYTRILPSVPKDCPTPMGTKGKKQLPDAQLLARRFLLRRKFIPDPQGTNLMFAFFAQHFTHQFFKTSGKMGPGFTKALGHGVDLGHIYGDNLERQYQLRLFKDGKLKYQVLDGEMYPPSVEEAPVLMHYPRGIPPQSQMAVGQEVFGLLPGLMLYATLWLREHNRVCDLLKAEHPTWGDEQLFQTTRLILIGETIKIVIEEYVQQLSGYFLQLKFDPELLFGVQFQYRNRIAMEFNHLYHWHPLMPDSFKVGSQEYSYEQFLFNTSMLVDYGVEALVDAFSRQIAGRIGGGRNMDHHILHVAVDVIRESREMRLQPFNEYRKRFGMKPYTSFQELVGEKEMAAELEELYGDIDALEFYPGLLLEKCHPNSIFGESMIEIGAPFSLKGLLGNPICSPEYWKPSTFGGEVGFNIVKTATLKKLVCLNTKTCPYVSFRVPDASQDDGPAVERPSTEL
# Procedure: as §1
# (1) COX-1 activity was measured in the following procedure. […] The serum obtained by 10 minutes of centrifugation at 2000 rpm at 4° C. was stored at -40° C. until the measurement of the amount of thromboxane B2 (TXB2). The test samples, which had been dissolved in ethanol and diluted to the specified concentrations, were previously dispensed into the glass test tubes, and the solvent was evaporated to dryness by Centrifugal Vaporizer (CVE-200D, manufactured by Tokyo Rika Mfg. Co., Ltd.) so that the test samples were added to the plasma.
# (3) The measurement for the TXB2 content was conducted in the following procedure. In a part of a 96 well plate coated with anti-rabbit IgG antibody, 2 wells were allotted respectively to blank well, Non-specific Binding (NSB) well, Maximum Binding (B0) well, standard wells at 7 concentrations of TXB2 (1000 pg/ml) in doubling dilution ranging from 1000-15.6 pg/ml. The rest of the wells were used for the measurement of the samples. EIA buffer was added to the NSB wells (100 μl ) and B0 wells (50 μl), respectively. 50 μl of each of the standard dilution was added in an order from thinner to thicker concentrations. Each of the samples was added to the rest of the wells in an amount of 50 μl. Then, 50 μl of TXB2 tracer was added to each of the wells except for the blank wells. Further, 50 μl of TXB2 antibody was added to each of the wells except for the NSB wells and blank wells, then the well plate was covered with a plastic film and the reaction continued for 18 hours at room temperature. When the reaction was terminated, the wells were washed 5 times with a wash buffer. 200 μl of Elman's reagent was added to each of the wells and then the well plate was covered with a plastic film and developed for 60 minutes in a dark place. The absorbance at 405 nm was measured by an Immuno Reader (NJ-2000, manufactured by Nippon Intermed Co., Ltd.). From the measurement result, %B/B0 was calculated and, applying it to the approximation formula of Hill Plot, the concentration of the samples was determined to be 2,000 times concentration. […]
# Human COX-2 [2] = target: T1, Human COX-2; details: ratio of IC50 COX-1 to COX-2; cited from earlier work
Compound,Tumor Weight (Sarcoma 180 solid tumor) [g],"pIC50 (Human COX-2 [1]; human blood, LPS, PGE2, IC50 from Hill Plot)",COX-1/COX-2 (Human COX-2 [1]; ratio of IC50 COX-1 to COX-2),Edematization Suppression rate (carrageenan footedema) [%],"cytostatic action (CaCo-2 cells; CaCo-2 cells, colon cancer cells)","pIC50 (CaCo-2 cells; Homo sapiens, CaCo-2, 72 hours, XTT method, read-out: Cytostatic rate (IC50))",pIC50 (Human COX-1),COX-1/COX-2 (value specified in the literature) (Human COX-2 [2])
"Cc1cc(-c2ccc3c(ccn3C)c2)c(-c2ccc(S(C)(=O)=O)cc2)[nH]1 [Preparation Example 37, 4-(5-N-methylindolyl)-2-methyl-5-(4-methylsulfonylphenyl)-1H-pyrrole]",0.906,6.85,> 714,26.5,demonstrated a cytostatic action with respect to CaCo-2 cells,6.02,–,–
"CS(=O)(=O)c1ccc(-c2[nH]ccc2-c2ccc(F)cc2)cc1 [Control compound (b), 4-(4-fluorophenyl)-5-(4-methylsulfonylphenyl)-1H-pyrrole, reference compound]",–,–,–,-1.8,–,–,3.43,29.4
